Experimental data taken from article PMC10004777 (Molecules, 2023).

Assays:
HepG2 cells = test: Cell viability (MTT) assay, HepG2; assay type: cell-based; conditions: for anti-proliferation activity on HepG2 (in words): HepG2, 48 h
Description: (§1) To investigate the selectivity of these derivatives towards different tumor cell lines, we also selected HepG2 and osteosarcoma cell line SJSA-1 cells to evaluate the anti-proliferation activity of the derivatives. […] Except for compounds A2 and A11, the effects of other compounds on SJSA-1 were not strong.
(§2) The cell lines present in this study were obtained from Procell Life Science & Technology Co. Ltd. MCF-7, HepG2 and SJSA-1 cells were cultured in DMEM medium (DMEM, Gibco) supplemented with 10% fetal bovine serum (FBS, Gibco), 1% penicillin-streptomycin (Hyclone) at 37℃ in a humid environment with 5% CO2. HK-2 cells were cultured in DMEM/F12 (1:1) medium and placed in incubators in the same environment.
(§3) Cell viability was determined by MTT assay. MCF-7, HepG2, SJSA-1 and HK-2 cells (6 × 10^3 cells /well) were seeded in 96-well plates with serum-free medium for 24 h. […] After 48 or 72 h, 10 μL MTT (5 mg/mL, Beyotime) was added and incubated at 37 °C for 4 h. Then 100 μL of lysate was added. After complete dissolution of the crystal, the absorbance was measured at 540 nm and expressed as the average percentage of absorbance between treated and control cells. The value for control cells was set at 100%. Cell survival rate was calculated as the ratio of the absorbance of the cells and negative control after minus the blank absorbance respectively.

HK-2 cells = test: Cell viability (MTT) assay, HK-2 normal cells (cytotoxicity); assay type: cell-based
Description: as §2, §3

[1] = tested on: osteosarcoma cell line SJSA-1; test: Cell viability (MTT) assay, SJSA-1; assay type: cell-based
Description: as §1, §2, §3

[2] = tested on: MCF-7 breast cancer cells; test: Cell viability (MTT) assay, MCF-7; assay type: cell-based; conditions: for anti-proliferation activity on MCF-7 compared with GAA: MCF-7, 48 h
Description: MCF-7 is a commonly used tumor cell line.
as §2, §3

SMILES	melting point [°C]	Viability of Cells (% of Control) (HepG2 cells; 25 µM)	Viability of Cells (% of Control) (HepG2 cells; 50 µM)	inhibition at 50 µM (HepG2 cells; Homo sapiens, HepG2, 50 µM (printed: below 50 µM), 48 h, read-out: inhibition rate of HepG2) [%]	Viability of Cells (% of Control) (HK-2 cells; 50 µM)	Viability of Cells (% of Control) (HK-2 cells; 100 µM)	Viability of Cells (% of Control) ([1]; 50 µM)	Viability of Cells (% of Control) ([1]; 100 µM)	Viability of Cells (% of Control) ([2]; 25 µM)	Viability of Cells (% of Control) ([2]; 50 µM)	Viability of Cells (% of Control) ([2]; 100 µM)	anti-proliferation activity on SJSA-1 (in words) ([1]; SJSA-1, 72 h)	anti-proliferation activity on HepG2 (in words) (HepG2 cells)	toxicity to HK2 cells (in words) (HK-2 cells)	anti-proliferation activity on MCF-7 compared with GAA [2]
C[C@H](CC(=O)C[C@@H](C)[C@H]1C[C@H](O)[C@@]2(C)C3=C(C(=O)C[C@]12C)[C@@]1(C)CCC(=O)C(C)(C)[C@@H]1C[C@@H]3O)C(=O)NCCc1ccc(Cl)cc1 [Compound A12, (4-Chlorophenethyl)-(7β,15α,25R)-7,15-Dihydroxy-3,11,23-Trioxolanost-8-en-26-oic Amide]	195.4 to 196.1	29.1 ± 0.4 % of Control	25.6 ± 0.8 % of Control	74.4	124.1 ± 2.6 % of Control	111.2 ± 6.5 % of Control	73.5 ± 1.2 % of Control	65.5 ± 1.5 % of Control	119.0 ± 3.4 % of Control	110.5 ± 6.0 % of Control	102.9 ± 3.8 % of Control				
C[C@H](CC(=O)C[C@@H](C)[C@H]1C[C@H](O)[C@@]2(C)C3=C(C(=O)C[C@]12C)[C@@]1(C)CCC(=O)C(C)(C)[C@@H]1C[C@@H]3O)C(=O)NCCc1ccc(F)cc1 [Compound A11, (4-Fluorophenethyl)-(7β,15α,25R)-7,15-Dihydroxy-3,11,23-Trioxolanost-8-en-26-oic Amide]	188.1 to 189	78.5 ± 3.0 % of Control	69.1 ± 2.0 % of Control		89.8 ± 9.6 % of Control	86.9 ± 2.7 % of Control	56.1 ± 8.7 % of Control	41.9 ± 3.1 % of Control	100.5 ± 2.5 % of Control	101.8 ± 0.2 % of Control	58.4 ± 5.5 % of Control	some selectivity for SJSA-1			
C[C@H](CC(=O)C[C@@H](C)[C@H]1C[C@H](O)[C@@]2(C)C3=C(C(=O)C[C@]12C)[C@@]1(C)CCC(=O)C(C)(C)[C@@H]1C[C@@H]3O)C(=O)NCc1ccc(Cl)cc1 [Compound A7, (4-Chlorobenzyl)-(7β,15α,25R)-7,15-Dihydroxy-3,11,23-Trioxolanost-8-en-26-oic Amide]	188.6 to 189.4	73.8 ± 1.2 % of Control	53.4 ± 1.0 % of Control		86.2 ± 3.7 % of Control	81.3 ± 3.3 % of Control	81.6 ± 2.8 % of Control	77.1 ± 4.6 % of Control	73.5 ± 4.0 % of Control		75.1 ± 13.2 % of Control		potent anti-proliferation activity	some toxicity	significant anti-proliferation activities
Cc1ccc(CNC(=O)[C@H](C)CC(=O)C[C@@H](C)[C@H]2C[C@H](O)[C@@]3(C)C4=C(C(=O)C[C@]23C)[C@@]2(C)CCC(=O)C(C)(C)[C@@H]2C[C@@H]4O)cc1 [Compound A5, (4-methylbenzyl)-(7β,15α,25R)-7,15-Dihydroxy-3,11,23-Trioxolanost-8-en-26-oic Amide]	208.7 to 209	78.5 ± 3.0 % of Control	69.1 ± 1.9 % of Control		110.4 ± 13.1 % of Control	97.0 ± 8.8 % of Control	75.0 ± 2.6 % of Control	64.5 ± 1.2 % of Control	115.0 ± 2.9 % of Control	107.4 ± 6.7 % of Control	99.5 ± 1.0 % of Control				
C[C@H](CC(=O)C[C@@H](C)[C@H]1C[C@H](O)[C@@]2(C)C3=C(C(=O)C[C@]12C)[C@@]1(C)CCC(=O)C(C)(C)[C@@H]1C[C@@H]3O)C(=O)N1CCN(c2ccccc2)CC1 [Compound A15, (4-Phenylpiperazin-1-yl)-(7β,15α,25R)-7,15-Dihydroxy-3,11,23-Trioxolanost-8-en-26-oic Amide]	229.4 to 229.9	77.1 ± 2.1 % of Control	99.3 ± 0.2 % of Control		123.3 ± 5.5 % of Control	111.0 ± 8.7 % of Control	75.9 ± 0.9 % of Control	83.5 ± 0.8 % of Control	74.3 ± 5.2 % of Control	70.4 ± 1.5 % of Control	66.5 ± 1.4 % of Control		weaker anti-proliferation effect		significant anti-proliferation activities
